The values below come from patent US5461057A, “Hydro-ethano-indeno-pyridines” (priority 1994, dated 1995).

The test system of one assay is PDGF receptor. As to the kind of experiment: PDGF receptor binding assay.
Another assay has as its system metrazole. As to the kind of experiment: Anti-metrazole test in mice. Conditions: Mus musculus, read-out: MTZ ED50. The class given is in vivo, mouse. On the procedure: The anti-metrazole test in mice was carried out as described in Everett et al, J. Pharmacol. Exp. Therap. 81:402-407 (1944); which is hereby incorporated by reference.
The results for this test are given below as ED50's in the units of mg/kg.

For assay [1], the system named is PDGF-BB-stimulated mitogenesis of bovine smooth muscle cells. As to the kind of experiment: Smooth muscle cell mitogenesis test. The class given is cell-based. On the procedure:
The procedure for the Smooth Muscle Cell Mitogenesis test is given just below. The fibronectin adhesion inhibitor, compound B, was tested for inhibitory effects on PDGF (Platelet Derived Growth Factor) BB-stimulated mitogenesis of bovine smooth muscle cells. Cells were exposed to PDGF with and without compound B in 24-well plates for 16 hours.

Assay [2] has as its system acetic acid-induced writhing. As to the kind of experiment: Acetic Acid Writhing Test in Mice. It is filed as in vivo, mouse. Conditions: Mus musculus, po, read-out: WRITH ED50. The method in brief:
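Writhing provoked by intraperitoneal acetic acid in mice, following the Hendershot and Koster procedures. Values are effective doses (ED50) in mg/kg.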
A general note: An intraperitoneal irritant provokes the stretching counted in writhing tests.

In a further assay the test system is pulmonary resistance. As to the kind of experiment: Pulmonary Resistance in the Anesthetized Rat. The class given is in vivo. Conditions: 0.5 mpk, i.v.; mean of 5 animals; % decrease in pre-drug baseline resistance. The method in brief: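 Dialurethane-anesthetized rats (400-500 g) with tracheal and esophageal catheters; air flow and tracheal/esophageal pressures used to derive pulmonary resistance. Compounds given i.v. to 5 animals each; values are mean % decrease from pre-drug baseline resistance.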

The term ED50 denotes the dose that gives a 50% effect, or the effect in half of the subjects. As a reminder, the inhibition is the relative decrease from the control value, in per cent. By IC50 is commonly meant the midpoint of a concentration-inhibition curve. Consider `COc1ccc(C2=C3CC4CCC(N4)C3c3ccccc32)cc1` (stereo not shown) [Compound B], for which, in the assay on PDGF receptor, the “inhibition of PDGF binding” value is “not to inhibit PDGF binding directly”. Further, the ED50 (with metrazole; in assay [2]) was over 30 mg/kg throughout. Moreover, the “3H-Thymidine Incorporation (dpm/1000 ± S.E.M.)” value in assay [1] (0.1 μM + 1 ng/ml PDGF-BB) is listed as 406.8 ± 30.2 dpm/1000; in assay [1] (0.3 μM + 1 ng/ml PDGF-BB) it was 347.7 ± 9.8 dpm/1000; in assay [1] (1 μM + 1 ng/ml PDGF-BB) it was 156.3 ± 7.2 dpm/1000; in assay [1] (3 μM + 1 ng/ml PDGF-BB) it was 17.0 ± 1.9 dpm/1000; in assay [1] (10 μM + 1 ng/ml PDGF-BB), 7.3 ± 5.3 dpm/1000. Also, the cell detachment result in assay [1] (10 μM) was “caused cells to detach from the plate”. For the same compound, the inhibition at 0.1 µM in assay [1] (Bos taurus, 0.1 μM + 1 ng/ml PDGF-BB) is -2.7%. Moreover, in assay [1] (Bos taurus, 0.3 μM + 1 ng/ml PDGF-BB), the inhibition at 0.3 µM amounted to 18.5%. Moreover, in assay [1] (Bos taurus, 1 μM + 1 ng/ml PDGF-BB), the inhibition at 1 µM came to 87.1%. In addition, the inhibition at 3 µM in assay [1] (Bos taurus, 3 μM + 1 ng/ml PDGF-BB) worked out at 137%. Further, in assay [1] (Bos taurus, 10 μM + 1 ng/ml PDGF-BB), the inhibition at 10 µM worked out at 140%. The IC50 in assay [1] (Bos taurus, 16 hours, read-out: inhibition of PDGF-stimulated mitogenesis IC50) worked out at 520 nM.
Consider `Cc1ccc(C2=C3CC4CCC(C3c3ccccc32)N4C)cc1` (stereo not shown) [J], for which the “Pulmonary Resistance in Rats, % Inhibition” value with pulmonary resistance is given as 35%.
